From PMC4979471 (Cell Death Discovery, 2015)
Read-outs that look alike come from different tables or passages of the source.

What was measured:
Assay in all cases: Kinase selectivity, P33-radiolabeled assay
Assay type in all cases: biochemical
Conditions in all cases: 10 μM ATP
GRK2 = biological target: T1, GRK2 (Homo sapiens, UniProt P25098)
T1 construct: purchased Reaction Biology Corp
T1 sequence (P25098 1-689): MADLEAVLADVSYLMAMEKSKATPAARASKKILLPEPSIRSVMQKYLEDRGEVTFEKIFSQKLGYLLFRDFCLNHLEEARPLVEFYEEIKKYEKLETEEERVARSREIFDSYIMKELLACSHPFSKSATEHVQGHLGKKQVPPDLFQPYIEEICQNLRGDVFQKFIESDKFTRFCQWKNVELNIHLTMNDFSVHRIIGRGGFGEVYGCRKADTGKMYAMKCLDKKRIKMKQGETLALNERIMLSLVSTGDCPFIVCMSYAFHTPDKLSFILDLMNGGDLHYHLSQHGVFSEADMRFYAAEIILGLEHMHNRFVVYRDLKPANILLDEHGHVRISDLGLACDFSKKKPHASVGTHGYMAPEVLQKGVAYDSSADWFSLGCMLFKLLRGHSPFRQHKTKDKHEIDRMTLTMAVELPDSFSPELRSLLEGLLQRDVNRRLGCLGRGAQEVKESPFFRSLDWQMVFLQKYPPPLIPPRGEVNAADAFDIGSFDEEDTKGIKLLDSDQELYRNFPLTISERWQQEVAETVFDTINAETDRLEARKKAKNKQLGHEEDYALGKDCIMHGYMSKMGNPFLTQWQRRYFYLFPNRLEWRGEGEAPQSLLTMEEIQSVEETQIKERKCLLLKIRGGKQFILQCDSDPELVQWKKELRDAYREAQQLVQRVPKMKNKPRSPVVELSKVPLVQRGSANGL
Method in brief: (§1)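 Activity relative to DMSO controls (%) was measured for compound at 10 μM. Assays ran at 10 μM ATP, in duplicate.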

IR = biological target: T2, IR (Homo sapiens, UniProt P06213)
T2 construct: purchased Reaction Biology Corp
Method in brief: as §1

MKK6 = biological target: T3, MKK6 (Homo sapiens, UniProt P52564)
T3 construct: purchased Reaction Biology Corp
T3 sequence (P52564 1-334): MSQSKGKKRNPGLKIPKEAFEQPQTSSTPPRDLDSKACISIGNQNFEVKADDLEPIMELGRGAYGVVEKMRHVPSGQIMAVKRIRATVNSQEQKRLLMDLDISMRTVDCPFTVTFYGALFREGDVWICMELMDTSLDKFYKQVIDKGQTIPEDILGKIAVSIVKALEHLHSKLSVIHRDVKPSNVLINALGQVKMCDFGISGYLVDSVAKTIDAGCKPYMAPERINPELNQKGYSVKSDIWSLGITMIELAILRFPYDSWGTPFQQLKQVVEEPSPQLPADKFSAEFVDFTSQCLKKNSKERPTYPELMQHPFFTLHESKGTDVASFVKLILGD
Method in brief: as §1

BRSK1 = biological target: T4, BRSK1 (Homo sapiens, UniProt Q8TDC3)
T4 construct: purchased Reaction Biology Corp
T4 sequence (Q8TDC3 1-778): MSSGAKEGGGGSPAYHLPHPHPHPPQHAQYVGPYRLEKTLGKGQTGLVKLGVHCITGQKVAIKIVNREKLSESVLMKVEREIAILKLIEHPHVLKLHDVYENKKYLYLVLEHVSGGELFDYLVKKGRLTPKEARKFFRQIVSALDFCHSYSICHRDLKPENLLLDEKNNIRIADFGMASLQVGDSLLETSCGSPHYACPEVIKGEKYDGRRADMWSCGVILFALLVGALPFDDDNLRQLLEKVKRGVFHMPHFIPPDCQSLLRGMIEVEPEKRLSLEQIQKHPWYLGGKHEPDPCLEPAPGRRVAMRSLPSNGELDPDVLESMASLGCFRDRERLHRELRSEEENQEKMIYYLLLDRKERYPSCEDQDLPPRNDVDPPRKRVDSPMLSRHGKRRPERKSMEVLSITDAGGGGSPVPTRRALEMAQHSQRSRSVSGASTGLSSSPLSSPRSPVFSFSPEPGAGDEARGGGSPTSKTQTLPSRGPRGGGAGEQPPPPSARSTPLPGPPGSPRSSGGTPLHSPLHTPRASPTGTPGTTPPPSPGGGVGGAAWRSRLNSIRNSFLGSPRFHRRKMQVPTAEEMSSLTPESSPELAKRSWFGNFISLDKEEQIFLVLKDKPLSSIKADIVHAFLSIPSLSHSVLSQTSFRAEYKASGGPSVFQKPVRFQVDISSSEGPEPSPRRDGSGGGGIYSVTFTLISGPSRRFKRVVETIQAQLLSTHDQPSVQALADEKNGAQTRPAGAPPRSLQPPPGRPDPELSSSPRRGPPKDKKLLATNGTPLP
Method in brief: as §1

IKKb/IKBKB = biological target: T5, IKKb/IKBKB (Homo sapiens, UniProt O14920)
T5 construct: purchased Reaction Biology Corp
T5 sequence (O14920 1-756): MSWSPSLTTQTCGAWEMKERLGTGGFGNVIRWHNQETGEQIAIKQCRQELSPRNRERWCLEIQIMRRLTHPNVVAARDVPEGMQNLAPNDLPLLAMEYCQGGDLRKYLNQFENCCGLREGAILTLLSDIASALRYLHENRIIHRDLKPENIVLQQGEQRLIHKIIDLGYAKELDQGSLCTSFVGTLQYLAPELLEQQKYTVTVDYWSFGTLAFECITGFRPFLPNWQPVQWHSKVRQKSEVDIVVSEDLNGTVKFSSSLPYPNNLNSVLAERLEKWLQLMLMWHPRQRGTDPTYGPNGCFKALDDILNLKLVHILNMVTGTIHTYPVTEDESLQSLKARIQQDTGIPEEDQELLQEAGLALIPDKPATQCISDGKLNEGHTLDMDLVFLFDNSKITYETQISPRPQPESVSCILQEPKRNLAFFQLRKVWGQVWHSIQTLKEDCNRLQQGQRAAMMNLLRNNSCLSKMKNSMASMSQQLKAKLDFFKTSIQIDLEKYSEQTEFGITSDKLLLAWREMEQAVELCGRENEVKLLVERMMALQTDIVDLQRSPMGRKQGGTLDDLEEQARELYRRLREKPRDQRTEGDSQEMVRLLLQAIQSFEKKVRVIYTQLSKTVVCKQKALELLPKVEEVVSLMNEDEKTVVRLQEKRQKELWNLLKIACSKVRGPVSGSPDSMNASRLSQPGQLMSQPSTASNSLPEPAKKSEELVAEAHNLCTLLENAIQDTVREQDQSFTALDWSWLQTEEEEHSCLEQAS
Method in brief: as §1

[1] = read-out: % Enzyme Activity (relative to DMSO controls) AVG
[2] = read-out: % Enzyme Activity (relative to DMSO controls) Data 1
[3] = read-out: % Enzyme Activity (relative to DMSO controls) Data 2

T2 sequence (P06213 28-1382): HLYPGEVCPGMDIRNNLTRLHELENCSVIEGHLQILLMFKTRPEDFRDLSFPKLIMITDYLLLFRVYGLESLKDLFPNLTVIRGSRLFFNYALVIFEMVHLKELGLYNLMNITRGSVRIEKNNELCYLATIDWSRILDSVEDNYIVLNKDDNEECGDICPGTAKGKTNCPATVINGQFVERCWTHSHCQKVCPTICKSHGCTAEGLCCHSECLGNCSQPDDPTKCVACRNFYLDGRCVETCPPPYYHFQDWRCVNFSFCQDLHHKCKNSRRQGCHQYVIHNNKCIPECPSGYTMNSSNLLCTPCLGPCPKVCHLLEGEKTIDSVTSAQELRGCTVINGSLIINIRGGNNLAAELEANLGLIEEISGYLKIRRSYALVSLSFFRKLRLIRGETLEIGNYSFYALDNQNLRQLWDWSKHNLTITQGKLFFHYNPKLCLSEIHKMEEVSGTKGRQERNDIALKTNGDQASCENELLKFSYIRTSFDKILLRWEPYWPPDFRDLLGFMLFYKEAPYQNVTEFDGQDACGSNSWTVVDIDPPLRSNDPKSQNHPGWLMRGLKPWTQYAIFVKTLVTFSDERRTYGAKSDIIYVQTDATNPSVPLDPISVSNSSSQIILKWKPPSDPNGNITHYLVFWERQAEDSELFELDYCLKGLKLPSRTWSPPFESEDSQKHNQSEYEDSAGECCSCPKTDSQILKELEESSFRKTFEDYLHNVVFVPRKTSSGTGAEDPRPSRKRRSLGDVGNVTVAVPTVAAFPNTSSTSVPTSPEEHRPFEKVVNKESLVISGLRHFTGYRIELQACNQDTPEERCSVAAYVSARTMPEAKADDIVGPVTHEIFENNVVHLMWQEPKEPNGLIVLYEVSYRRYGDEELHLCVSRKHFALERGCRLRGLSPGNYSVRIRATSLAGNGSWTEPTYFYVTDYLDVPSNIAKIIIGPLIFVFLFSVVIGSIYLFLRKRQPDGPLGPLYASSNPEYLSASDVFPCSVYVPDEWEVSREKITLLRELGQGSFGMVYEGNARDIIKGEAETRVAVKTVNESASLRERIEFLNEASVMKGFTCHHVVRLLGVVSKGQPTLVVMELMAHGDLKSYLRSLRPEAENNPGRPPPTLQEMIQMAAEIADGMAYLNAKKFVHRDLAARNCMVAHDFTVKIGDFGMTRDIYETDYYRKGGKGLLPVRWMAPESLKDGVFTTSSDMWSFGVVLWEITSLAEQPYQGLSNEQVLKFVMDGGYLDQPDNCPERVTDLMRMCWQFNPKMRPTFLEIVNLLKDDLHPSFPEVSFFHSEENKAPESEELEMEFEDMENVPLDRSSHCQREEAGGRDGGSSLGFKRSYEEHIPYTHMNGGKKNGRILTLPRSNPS

## CC(C)(C)C(=O)N1N=CC[C@H]1c1ccccc1 [GSK′963]
GRK2; [1]
  remaining activity at 10 µM: 95.7%
GRK2; [2]
  remaining activity at 10 µM: 99.5%
GRK2; [3]
  remaining activity at 10 µM: 91.8%
IR; [1]
  remaining activity at 10 µM: 101%
IR; [2]
  remaining activity at 10 µM: 104%
IR; [3]
  remaining activity at 10 µM: 97.1%
MKK6; [1]
  remaining activity at 10 µM: 99.7%
MKK6; [2]
  remaining activity at 10 µM: 101%
MKK6; [3]
  remaining activity at 10 µM: 98.6%
BRSK1; [1]
  remaining activity at 10 µM: 95.2%
BRSK1; [2]
  remaining activity at 10 µM: 96.9%
BRSK1; [3]
  remaining activity at 10 µM: 93.5%
IKKb/IKBKB; [1]
  remaining activity at 10 µM: 111%
IKKb/IKBKB; [2]
  remaining activity at 10 µM: 110%
IKKb/IKBKB; [3]
  remaining activity at 10 µM: 112%
